Measured values from ChEMBL document CHEMBL1150293, “The pyridoxamine action on Amadori compounds: A reexamination of its scavenging capacity and chelating effect” (Bioorg Med Chem, 2008).

Experiment: Aqueous stability assessed as half life at pH 7.4 by HPLC
Assay type: physicochemical
Details: aqueous solution

O=C(CN1CCOCC1)[C@@H](O)[C@H](O)[C@H](O)CO
half-life: 92 h

O=C(CN[C@H](Cc1c[nH]c2ccccc12)C(=O)O)[C@@H](O)[C@H](O)[C@H](O)CO
half-life: 25 h
